# Measured values: patent US11583511B2, “Maresins for use in the treatment of CNS injuries” (UNIVERSITAT AUTONOMA DE BARCELONA, priority 2017, dated 2023)
# What was measured:
# [1] = test system: neutrophils, macrophages and microglia in the contused spinal cord; experiment: Flow cytometry of immune cell counts in contused spinal cord after MaR1 treatment; assay type: in vivo, C57BI/6 mice; details: vs saline
# Description: (§1) All surgical procedures were approved by the Universitat Autònoma de Barcelona Animal Care Committee and followed the guidelines of the European Commission on Animal Care, and the methods for each procedure were carried out in accordance with the approved guidelines. 142 Adult (8 to 10 weeks old) female C57BI/6 mice (Charles River) were anesthetized with ketamine:xylazine (90:10 mg/kg). After performing a laminectomy at the 11th thoracic vertebrae, the exposed spinal cord was contused using the Infinite Horizon Impactor device (Precision Scientific Instrumentation, Lexington, Ky.). Injuries were made using a force of 60 kdynes and tissue displacement ranging between 500-700 μm as reported earlier (Coll-Miro et al., 2016).
# (§2) One hour after spinal cord injury, 1 μg of MaR1 (7S,14S-dihydroxy-4Z,8E,10E,12Z,16Z, 19Z-docosahexaenoic acid; Cayman Chemical) was injected intravenously in 100 μl of sterile saline, and then repeated daily thereafter until day 7. Control mice were injected with an equal volume of sterile saline following the same injection protocol. Precautions with regards to the handling of lipid mediators to prevent inactivity due to oxygenation were implemented. The MaR1 dosage was chosen accordingly to be above levels i) of approved MaR1 bioactivity in experimental disease models (Serhan et al., 2015) and ii) above SPM dosages sufficient to exert bioactivity in the CNS with intact and closed blood brain barrier (Marcheselli et al., 2003; Svensson et al., 2007).
# (§3) Immune cells from the laminectomized and injured spinal cord were analyzed by flow cytometry at 1, 3, 7, 14, 21 and 28 days post-injury as described previously to study the dynamics of immune cell in spinal cord injury as described previously (Santos-Nogueira et al., 2015; Coll-Miro et al., 2016; Francos-Quijorna et al., 2016). Similarly, spinal cord from mice treated with MaR1 or saline were also harvested at day 1, 3 and 7 post-lesion. Briefly, spinal cords were cut in little pieces and passed through a cell strainer of 70 μm (BD falcon) and the cell suspension was centrifuged twice at 300 g for 10 minutes at 4° C. After cell counts, samples were divided, and cells alone and isotype-matched control samples were generated to control for nonspecific binding of antibodies and for auto-fluorescence. The following antibodies from eBioscience were used at 1:250 concentration: CD45-PerCP, CD11b-PE-Cy7, Ly6C-FITC, Ly6G-PE, Gr1-FITC, F4/80-APC or PE, CD3-FITC, CD4-APC, CD8-APC, CD19-PE, CD206-FITC, CD16/32-PE. After 30 min of incubation with combinations of antibodies at 4° C., cells were then fixed in 1% paraformaldehyde. For intracellular staining, cells were permeabilized with Permeabilization Wash Buffer (Biolegend), incubated with unconjugated rabbit antibodies against iNOS (1:200 Abcam), and goat antibodies against Arg1 (1:200; Santa Cruz) for 30 minutes, followed by staining with Alexa488 or Alexa647 conjugated donkey secondary antibodies against rabbit or goat (1:500 Molecular Probes) for 30 min. Finally, samples were washed and fixed in 1% paraformaldehyde. To perform the analysis, cells were first gated for CD45 to ensure that only infiltrating leukocytes and resident microglia are selected. Then, the following combination of markers were used to identify: microglia (CD45^low, CD11b^+, F4/80^+); macrophages (CD45^high, CD11b^+, F4/80^+); neutrophils (CD45^high, CD11b^+, F4/80^−, Gr1^high); CD4 T-Cells (CD45^+, CD11b^−, CD3^+, CD4^+); CD8 T Cells (CD45^+, CD11b, CD3^+, CD8^+); B cell (CD45^+, CD11b^−, CD3^−, CD19^+). To study the phenotype of microglia and macrophages, these cells were further differentiated based on Ly6C, CD16/32, iNOS, CD206 and Arg1 expression (Coll-Miro et al., 2016; Francos-Quijorna et al., 2016). Analysis of inflammatory cell kinetics at the lesion site was conducted applying objective and quantifiable measures of resolution dynamics as described previously (Pruss et al., 2011). […]
# [2] = test system: cytokines and chemokines in the contused spinal cord; experiment: Cytokine protein expression in contused spinal cord (Luminex); assay type: in vivo, C57BI/6 mice
# Description: as §1, §2
# Mice treated with saline or MaR1 were perfused with sterile saline and a 5 mm length of spinal cord centered on the lesion was collected at 12 and 24 h after contusion injury and snap-frozen. Spinal cords were homogenized and protein concentration was determined using the DC Protein Assay (Bio-Rad). Samples were concentrated to 4 μg/μl using MicroCon centrifugation filters (Millipore) to ensure equal amounts of protein. Low concentrations of cytokines in the sample result in binding to the filters whereas high concentrations of protein sustain less losses. The protein levels of 32 cytokines and chemokines were then analyzed using the Milliplex MAP Mouse Cytokine/Chemokine magnetic bead panel (Millipore) on a Luminex (Millipore) as per manufacturers' protocol (Francos-Quijorna et al., 2016).
# [3] = test system: STAT, MAPK, NF-κB and PI3K/Akt signaling; experiment: Western blotting of inflammatory signaling pathways in contused spinal cord; assay type: in vivo, C57BI/6 mice; details: vs saline
# Description: as §1, §2
# Samples used for Luminex assay, were also used to for western blotting. Protein samples (30 μg) were separated by electrophoresis on a 10-15% polyacrylamide gel and transferred onto PVDF membranes (Millipore). The membranes were incubated overnight at 4° C. with rabbit antibodies against phospho NF-kB p65 (1:1000; Cell Signaling), against the phosphorylated form of STAT1 (1:500; Cell Signaling), STAT3 (1:500; Cell Signaling), STAT5 (1:500; Cell Signaling) and STAT6 (1:500; Cell Signaling), JNK (1:500; Santa Cruz), ERK1/2 (1:1000; Cell Signaling), p38 (1:1000; Cell Signaling) and AKT (1:1000; Cell Signaling). Bands were detected using Chemiluminescence (Immobilon Western Chemiluminescence HRP reagent, Millipore) and data quantified by densitometry using Workflow v3 software in a Chemidoc apparatus (Millipore). ß-actin (1:10.000; Sigma Aldrich) was used to ensure equal loading of samples.
# [4] = test system: macrophages and microglia (Ly6C, iNOS, Arg1); experiment: Flow cytometry of macrophage and microglia phenotype after SCI; assay type: in vivo, C57BI/6 mice
# Description: as §1, §2, §3
# [5] = test system: macrophages (CD45high, CD11b+, F4/80+); experiment: Efferocytosis: neutrophil marker Ly6G inside macrophages after SCI; assay type: in vivo, C57BI/6 mice; details: 7 days post-lesion; vs saline
# Description: as §1, with “Injuries were made using a force of 60 kdynes and tissue displacement ranging between 500-700 μm as reported earlier (Coll-Miro et al., 2016).” left out
# Immune cells from the laminectomized and injured spinal cord were analyzed by flow cytometry at 1, 3, 7, 14, 21 and 28 days post-injury as described previously to study the dynamics of immune cell in spinal cord injury as described previously (Santos-Nogueira et al., 2015; Coll-Miro et al., 2016; Francos-Quijorna et al., 2016). […] After cell counts, samples were divided, and cells alone and isotype-matched control samples were generated to control for nonspecific binding of antibodies and for auto-fluorescence. […] Analysis of inflammatory cell kinetics at the lesion site was conducted applying objective and quantifiable measures of resolution dynamics as described previously (Pruss et al., 2011). […]
# [6] = test system: spinal cord contusion injury; experiment: Functional assessment of locomotor recovery after SCI (BMS, DigiGait, treadmill); assay type: in vivo, C57BI/6 mice
# Description: as §1, §2
# Locomotor recovery was evaluated at 1, 3, 5, 7, 10, 14, 21 and 28 dpi in an open-field test using the nine-point Basso Mouse Scale (BMS) (Basso et al., 2006), which was specifically developed for locomotor testing after contusion injuries in mice. The BMS analysis of hindlimb movements and coordination was performed by two independent assessors blinded for the treatment groups (MaR1 vs saline) and the consensus score taken. […] Moreover, the highest locomotion speed that each mouse was to able locomote for at least 5 seconds was also recorded on the DigiGait treadmill belt. […]
# [7] = test system: spinal cord contusion injury; experiment: Histology of secondary tissue damage after SCI; assay type: in vivo, C57BI/6 mice; details: 28 days post-injury, vs saline
# Description: as §1, §2
# At 28 days post-injury, mice were perfused with 4% paraformaldehyde in 0.1M-phosphate buffer (PB). A 5 mm length of spinal cord containing the lesion site was removed, cryoprotected with 30% sucrose in 0.1M PB at 4° C., and 10 series of 10 μm thick section were picked up on glass slides. Adjacent sections on the same slide were therefore 100 μm apart. For quantification of myelin area content in the spinal cord analyses, sections were stained with Luxol Fast Blue (Sigma). […]
# The epicenter of the injection or contusion injury impact was determined for each mouse spinal cord by localizing the tissue section with the greatest damage using LFB stained section. Myelin content after SCI was calculated by delineating the are of LFB stained tissue. Neuronal survival was assessed by counting the number of NeuN^+ cells in the ventral horns at the injury epicenter and at rostral and caudal areas. Axonal sparing was calculated by counting the number of axons in the dorsal column at the injury epicenter, the region of most pronounced damage. […] All quantifications were performed blinded to the experimental groups with the help of the ImageJ image analysis software.
# human macrophages = details: 1 nM concentration; cited from earlier work
# [8] = contused spinal cord, 24 h after SCI, MaR1 1 μg i.v., mean ± SEM
# [9] = spinal cord tissue 24 hours after SCI
compound,measurement,setting,value
"CC/C=C\C/C=C\C[C@H](O)\C=C/C=C/C=C/[C@@H](O)C/C=C\CCC(=O)O [MaR1, 7S,14S-dihydroxy-4Z,8E,10E,12Z,16Z, 19Z-docosahexaenoic acid]",clearance of neutrophils from the contused spinal cord (Ri and T50),[1]; 1 μg MaR1 i.v. daily for 7 days,accelerated
same,entrance of blood-borne macrophages into the contused spinal cord,[1]; day 1,not different
same,neutrophil counts in contused spinal cord,"[1]; day 1 post-injury, 1 μg MaR1 i.v. daily from 1 hour after SCI",unaltered
same,macrophage counts in the contused spinal cord,"[1]; day 3 post-injury, not significant",tended to be reduced
same,reduction of neutrophil counts in the injured spinal cord,"[1]; day 7, 1 μg MaR1 i.v. daily",~50%
same,macrophage accumulation in the lesioned spinal cord,[1]; day 7 post-lesion,significantly reduced
same,microglial numbers in the contused spinal cord,[1]; first week following contusion injury,did not attenuate
same,protein levels of the anti inflammatory cytokine IL-10,"[2]; after SCI, vs saline",did not reduce
same,CCL3 protein level,[2]; [8],13.3 ± 1.18
same,CCL4 protein level,[2]; [8],17.7 ± 1.46
same,CSF3 protein level,[2]; [8],741 ± 118
same,CXCL1 protein level,[2]; [8],87.5 ± 21.3
same,CXCL2 protein level,[2]; [8],41.4 ± 7.50
same,IL-6 protein level,[2]; [8],291 ± 56.7
same,IL-4 protein levels,"[2]; injured spinal cord, both groups",undetected
same,ERK1/2 activation,[3]; 24 hours post-injury,attenuated
same,JKN activation,[3]; 24 hours post-injury,remained unaltered
same,STAT1 activation,[3]; 24 hours post-injury,attenuated
same,STAT3 activation,[3]; 24 hours post-injury,attenuated
same,STAT5 activation,[3]; 24 hours post-injury,attenuated
same,STAT6 activation,[3]; 24 hours post-injury,remained unaltered
same,p38 activation,[3]; 24 hours post-injury,attenuated
same,pAkt level,[3]; [9],not affected
same,pP65 level,[3]; [9],not affected
same,percent of Ly6Chigh microglia,[4]; 7 days after SCI,10.6%±1.1
same,ratio LyC6low/LyC6high macrophages,"[4]; 7 days after SCI, p=0.0036 vs saline",3.73±0.26
same,reduction of pro-inflammatory macrophages (Ly6Chigh),"[4]; 7 days after SCI, vs saline",~50%
same,increase of Arg-1 expression in macrophages,"[4]; 7 days post injury, did not reach statistical significance",~2 fold
same,iNOS expression in microglia,"[4]; 7 days post injury, not statistically significant",tended to reduce
same,iNOS expression in macrophages,"[4]; 7 days post injury, vs saline",significantly reduced
same,increase of neutrophil marker Ly6G inside macrophages (neutrophil phagocytosis),[5],~2 fold
same,BMS score,"[6]; 28 dpi, nine-point Basso Mouse Scale, 1 μg MaR1 i.v. daily until day 7",4.58±0.22
same,DigiGait gait symmetry and stance/width stepping variability,"[6]; day 28 post-injury, vs saline",improved
same,speed of locomotion on the treadmill,"[6]; day 28 post-injury, vs saline",significantly faster
same,neuronal survival in the ventral horn,[7]; caudal regions to the injury epicenter,improved
same,myelin content (LFB),[7]; injury epicenter and 200 μm rostral and caudal,increased
same,axonal sparing (NF+) in the dorsal columns,[7]; injury epicenter,enhanced
same,demyelination (NF/MBP+) in the dorsal columns,[7]; injury epicenter,reduced
same,efferocytosis by human macrophages compared with RvD1,human macrophages,greater efferocytosis
